Assay results taken from US12070520B2, “Dermal delivery device” (Agile Therapeutics, Inc., priority 2007, dated 2024).

Assay: Control of loss of volatile components: amounts in the AI patch after storage (gas chromatography)
Type: physicochemical
Experimental: A transdermal hormone delivery device was prepared comprising an internal backing layer, an AI layer, and a release liner. […] The device also comprised an overlay comprising a polyurethane spun bonded non-woven backing, which is able to absorb large amounts of the volatile excipients, DMSO and ethyl lactate, an acrylic PSA coated onto the polyurethane foam, and a PIB PSA coated on top of the acrylic PSA. […] The release liner was a Mylar polyester film coated with a fluoropolymer release coating. […] The devices were placed in a 25 C or 40 C oven. After 6 weeks and 12 weeks, devices were removed from the oven and the active section of each device was separated from the overlay. […] (12 weeks exposure to 40 C is intended to simulate 18 months exposure to room temperature (25 C)).

Amount in the AI patch (6 wks, 40 C.) | Amount in the AI patch (12 wks, 40 C.) | Amount in the AI patch (12 wks, room temp) | SMILES
9.02 wt % | 9.20 wt % | 9.10 wt % | CCCCCCCCCCCCOC(=O)C(C)O (stereo not drawn) [Lauryl Lactate, lauryl lactate]
9.02 wt % | 8.98 wt % | 9.08 wt % | C[S+](C)[O-] [DMSO, dimethyl sulfoxide]
1.66 wt % | 1.57 wt % | 1.79 wt % | CCOC(=O)C(C)O (stereo not drawn) [Ethyl Lactate, ethyl lactate]
